Laboratory results taken from paper PMC6656724 (Communications Biology, 2019).
Like-named read-outs stand apart in the source and are kept apart here.

Assays:
[1] = biological target: T1, Pseudomonas fluorescens KMO (PfKMO) (Pseudomonas fluorescens, UniProt Q84HF5, C252S/C461S); test: biochemical
T1 construct: made in house; host or cells: E. coli BL21 (DE3)
From the text: (§1) A combination of ligand- and structural-based virtual screening approaches (see supporting information for details) was used to identify an initial library of >1000 compounds that may be suitable as potential KMO inhibitors. These compounds were screened for inhibition of Pseudomonas fluorescens KMO (PfKMO) and Homo sapiens KMO (HsKMO) using high-throughput assays by monitoring the time-dependent oxidation of NADPH at 340 nm[23].
(§2) Small-molecule compounds were supplied by Biofocus (Charles River Laboratories International Inc., MA, USA), which were identified in silico as potential inhibitors (further details are described in the Supplementary Methods). Initial inhibition assays were performed against Pseudomonas fluorescens KMO (PfKMO) and Homo sapiens KMO (HsKMO) by monitoring the time-dependent absorbance change of NADPH at 340 nm. Purified KMO protein (200 nM) was incubated in 100 µL reaction buffer (20 mM potassium phosphate pH 8.0, 7 mM 2-mercaptoethanol) containing 100 μM NADPH, 100 μM L-Kyn and 20 μM potential inhibitors in 96-well plates. […] The inhibitors identified in the initial screens were validated and re-assayed individually in a 1 cm path-length quartz micro cuvette. […] Suppliers for target inhibitor compounds are listed in Supplementary Table 11.
(§3) Supplementary Figure 1. Examples of inhibition data used to generate IC50 values for selected KMO inhibitors. Fixed concentration of L -KYN (200 µM) and NADPH (100µM) were added into reaction buffer (HsKMO: 20mM potassium phosphate pH 8.0, 7 mM 2-mercaptoethanol; PfKMO: 20 mM HEPES, 10mM sodium acetate, pH 7.5, 2mM DTT). The reaction was initiated by the addition of KMO enzyme (HsKMO: 0.5µM; PfKMO: 0.1 µM). KMO activity was measured in the presence of a range of inhibitor concentrations. […]
(§4) 3.5 Steady-state enzymatic assays.
(§5) Initial screening assays and determination of IC50 values for each potential inhibitor compound were carried out using either 0.1 µM PfKMO or 0.5 µM HsKMO at fixed […]
(§6) (HsKMO: 20 mM potassium phosphate pH 8.0, 7 mM 2-mercaptoethanol; PfKMO:
(§7) 20 mM HEPES, 10 mM sodium acetate, pH 7.5, 2 mM DTT). KMO activity was measured in the presence of a range of inhibitor concentrations by monitoring the […]
consumption of NADPH at 340 nm upon addition of enzyme via a Cary 50 UV-Vis spectrophotometer (Agilent Technologies). Rates were determined from linear regression fits to the initial linear portion of the curves. All measurements were performed in triplicate. The IC50 values for inhibitors were obtained by plotting the percentage inhibition versus the inhibitor concentration and fitting to the Morrison equation16 (equation 1) using Origin 9.0 Software (OriginLab, Northampton, MA). […]

Homo sapiens KMO (HsKMO) = biological target: T2, Homo sapiens KMO (HsKMO) (Homo sapiens, UniProt O15229); test: KMO inhibition assay, NADPH oxidation at 340 nm (HsKMO); format: biochemical
T2 construct: GST; made in house
T2 sequence (O15229 whole entry): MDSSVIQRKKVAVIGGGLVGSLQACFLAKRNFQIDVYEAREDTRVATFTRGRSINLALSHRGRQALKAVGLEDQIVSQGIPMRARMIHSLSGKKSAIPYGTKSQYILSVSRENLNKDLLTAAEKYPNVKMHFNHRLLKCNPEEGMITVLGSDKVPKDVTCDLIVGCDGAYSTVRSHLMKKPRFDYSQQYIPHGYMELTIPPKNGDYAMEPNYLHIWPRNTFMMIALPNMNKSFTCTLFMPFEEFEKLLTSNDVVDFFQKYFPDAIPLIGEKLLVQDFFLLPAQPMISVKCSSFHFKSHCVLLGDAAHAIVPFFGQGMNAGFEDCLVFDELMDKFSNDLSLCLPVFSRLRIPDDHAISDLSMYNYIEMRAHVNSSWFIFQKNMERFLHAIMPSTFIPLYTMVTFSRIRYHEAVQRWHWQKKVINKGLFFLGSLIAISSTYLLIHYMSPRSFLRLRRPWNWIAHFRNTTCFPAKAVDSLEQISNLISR
From the text: as §1, §2
Supplementary Figure 1. Examples of inhibition data used to generate IC50 values for selected KMO inhibitors.
as §3, with “NADPH” for “Supplementary Figure 1. Examples of inhibition data used to generate IC50 values for selected KMO inhibitors. Fixed concentration of L -KYN (200 µM) and NADPH”
as §4, §5, §6, §7
consumption of NADPH at 340 nm upon addition of enzyme via a Cary 50 UV-Vis spectrophotometer (Agilent Technologies). Rates were determined from linear regression fits to the initial linear portion of the curves. All measurements were performed in triplicate. The IC50 values for inhibitors were obtained by plotting the percentage inhibition versus the inhibitor concentration and fitting to the Morrison equation16 (equation 1) using Origin 9.0 Software (OriginLab, Northampton, MA).
E + I + K!"" − E + I + K!"" ! − 4[E][I] where v0 is the enzyme activity without inhibitor, vi is the enzyme activity with ligand

T1 sequence (Q84HF5 whole entry C252S/C461S): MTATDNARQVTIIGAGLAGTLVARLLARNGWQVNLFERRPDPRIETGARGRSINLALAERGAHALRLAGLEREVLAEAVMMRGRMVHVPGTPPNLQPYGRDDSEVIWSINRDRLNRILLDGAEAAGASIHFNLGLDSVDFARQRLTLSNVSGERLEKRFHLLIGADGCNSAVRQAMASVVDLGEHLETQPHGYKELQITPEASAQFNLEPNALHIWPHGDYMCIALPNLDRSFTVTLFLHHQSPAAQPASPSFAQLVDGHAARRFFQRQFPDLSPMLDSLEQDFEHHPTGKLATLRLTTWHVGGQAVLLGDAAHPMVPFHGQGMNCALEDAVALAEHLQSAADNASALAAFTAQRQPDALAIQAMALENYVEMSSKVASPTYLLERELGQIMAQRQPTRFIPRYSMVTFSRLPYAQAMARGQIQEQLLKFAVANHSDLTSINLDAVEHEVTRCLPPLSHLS

Cc1cc2c(c(C)c1Cl)N(CC(=O)N(C)C)C(=O)CO2 [1e]
IC50 [1]: > 300 µM
IC50 (Homo sapiens KMO (HsKMO)): ~300 µM

O=C(Nc1ccccc1C(=O)O)c1ccc(-c2ccc(Cl)cc2Cl)o1 [compound 10, 2-(5-(2,4-dichlorophenyl)furan-2-carboxamido)benzoic acid]
IC50 [1]: 3 ± 0.1 µM
IC50 (Homo sapiens KMO (HsKMO)): 1.6 µM

COc1ccc(-c2cn(CC(=O)O)c(=O)cn2)cc1 [compound 15, 2-(5-(4-methoxyphenyl)-2-oxopyrazin-1(2H)-yl)acetic acid]
IC50 ([1]; read-out: IC50 PfKMO): 6.3 ± 0.6 µM
IC50 (Homo sapiens KMO (HsKMO)): 54.2 µM

O=C(O)c1ccc(-c2ccc(Cl)cc2Cl)o1 [compound 16, 5-(2,4-dichlorophenyl) furan-2-carboxylic acid]
IC50 [1]: 70.2 ± 2.8 µM
IC50 (Homo sapiens KMO (HsKMO)): 207 µM

Cc1cc2c(c(C)c1Cl)N(CC(N)=O)C(=O)CO2 [1g]
IC50 [1]: > 300 µM
IC50 (Homo sapiens KMO (HsKMO)): > 300 µM

CNC(=O)CN1C(=O)COc2cc(C)c(Cl)c(C)c21 [1f]
IC50 [1]: > 300 µM
IC50 (Homo sapiens KMO (HsKMO)): > 300 µM

O=C(O)c1ccc(-c2cccc(Cl)c2)o1 [compound 17, 5-(3-chlorophenyl) furan-2-carboxylic acid]
IC50 [1]: 15.9 ± 0.8 µM
IC50 (Homo sapiens KMO (HsKMO)): 442 µM

O=C(O)c1ccc(-c2cc(C(F)(F)F)ccc2Cl)o1 [compound 12, 5-[2-chloro-5-(trifluoromethyl)phenyl]furan-2-carboxylic acid]
IC50 [1]: 54 ± 1.6 µM
IC50 (Homo sapiens KMO (HsKMO)): 31.8 µM
